Values of other authors, collected in patent publication US20090099154A1, “Pharmaceutical Sustained Release Compositions and Processes Thereof” (PANACEA BIOTEC LTD., priority 2005, published 2009).

Experiments:
HSV-2-infected cells = HSV-2-infected cells cultured in vitro
VZV-infected cells = VZV-infected cells cultured in vitro
HSV-1-infected cells = HSV-1-infected cells cultured in vitro

## Penciclovir triphosphate
HSV-2-infected cells
  intracellular half-life: 20 h
VZV-infected cells
  intracellular half-life: 7 h
HSV-1-infected cells
  intracellular half-life: 10 h
